ChEMBL document CHEMBL1671621, “Efficient clearance of Aspergillus fumigatus in murine lungs by an ultrashort antimicrobial lipopeptide, palmitoyl-lys-ala-DAla-lys” (Antimicrob Agents Chemother, 2008)
≈ marks a conversion by molar mass, not a printed value. Calls of active or inactive are those of the source. The calls are words filed in the database; no cut-off is given here. Where a SMILES comes first, the peptide text is derived from it. [ ]: non-standard residue; d: D form. The star is where a group is joined. Palmitoyl = CCCCCCCCCCCCCCCC(=O)*; Lauroyl = CCCCCCCCCCCC(=O)*

Columns and labels:
Mus musculus [1] = assay: Toxicity in immunosuppressed C57BL/6 mouse assessed as hemorrhages at 1 to 4.5 mg/kg administered intratracheally on days 1, 4, 7 and 11 one day post infection; format: organism-based; parameters: dose 1-4.5 mg/kg, route endotracheal; conditions: in vivo, inhaled_or_intranasal
Aspergillus fumigatus [2] = assay: Antifungal activity against Aspergillus fumigatus CBS 144.89 infected in immunosuppressed wild-type C57BL/6 mouse assessed as increase in survival rate at 1 mg/kg administered intratracheally as single dose one day postinfection measured after 14 days relative to untreated control; format: functional, organism-based; parameters: dose 1 mg/kg
Aspergillus fumigatus [3] = assay: Antifungal activity against Aspergillus fumigatus CBS 144.89 by CLSI […] method; format: functional
Aspergillus fumigatus [4] = assay: Antifungal activity against Aspergillus fumigatus CBS 144.89 infected in immunosuppressed wild-type C57BL/6 mouse assessed as increase in survival rate at 1 mg/kg administered intratracheally for 4 days from the day of infection measured after 14 days relative to untreated control; format: functional, organism-based; parameters: dose 1 mg/kg
Mus musculus [5] = assay: Toxicity in immunosuppressed C57BL/6 mouse assessed as vasculitis at 1 to 4.5 mg/kg administered intratracheally on days 1, 4, 7 and 11 one day post infection; format: organism-based; parameters: dose 1-4.5 mg/kg, route endotracheal; conditions: in vivo, inhaled_or_intranasal
Mus musculus [6] = assay: Toxicity in immunosuppressed C57BL/6 mouse assessed as macrophage infiltration in the airways at 1 to 4.5 mg/kg administered intratracheally on days 1, 4, 7 and 11 one day post infection; format: organism-based; parameters: dose 1-4.5 mg/kg, route endotracheal; conditions: in vivo, inhaled_or_intranasal
Mus musculus [7] = assay: Toxicity to immunosuppressed C57BL/6 mouse assessed as airway infiltration of neutrophils at 1 to 4.5 mg/kg administered intratracheally on days 1, 4, 7 and 11 one day post infection; format: organism-based; parameters: dose 1-4.5 mg/kg, route endotracheal; conditions: in vivo, inhaled_or_intranasal
Mus musculus [8] = assay: Toxicity in immunosuppressed C57BL/6 mouse assessed as edema at 1 to 4.5 mg/kg administered intratracheally on days 1, 4, 7 and 11 one day post infection; format: organism-based; parameters: dose 1-4.5 mg/kg, route endotracheal; conditions: in vivo, inhaled_or_intranasal
Aspergillus fumigatus [9] = assay: Antifungal activity against DsRed-labeled Aspergillus fumigatus CBS 144.89 infected in immunocompromized C57BL/6 mouse assessed fungal hyphae degradation in lung at 1 mg/kg qd administered intratracheally for 4 days relative to untreated control; format: functional, organism-based; parameters: dose 1 mg/kg
Mus musculus [10] = assay: Toxicity in immunosuppressed C57BL/6 mouse assessed as blood vessel formation at 1 to 4.5 mg/kg administered intratracheally on days 1, 4, 7 and 11 one day post infection; format: organism-based; parameters: dose 1-4.5 mg/kg, route endotracheal; conditions: in vivo, inhaled_or_intranasal
[11] = Toxicity in human RBC assessed as hemolysis at 20 uM; format: cell-based, Erythrocyte; conditions: red blood cells (RBC), read-out: Activity
[12] = Toxicity in human RBC assessed as hemolysis at 50 uM; format: cell-based, Erythrocyte; conditions: red blood cells (RBC), read-out: Activity
Aspergillus fumigatus [13] = assay: Antifungal activity against Aspergillus fumigatus CBS 144.89 infected in immunosuppressed wild-type C57BL/6 mouse assessed as clearance of fungal forms in lung at 4.5 mg/kg administered intratracheally on days 1, 4, 7 and 11 one day post infection measured after 21 days relative to untreated control; format: functional, organism-based; parameters: dose 4.5 mg/kg
Aspergillus fumigatus [14] = assay: Antifungal activity against Aspergillus fumigatus CBS 144.89 infected in immunosuppressed wild-type C57BL/6 mouse assessed as recovery from infection at 4.5 mg/kg administered intratracheally on days 1, 4, 7 and 11 one day post infection measured after 21 days relative to untreated control; format: functional; conditions: route endotracheal
Aspergillus fumigatus [15] = assay: Antifungal activity against Aspergillus fumigatus CBS 144.89 infected in immunosuppressed wild-type C57BL/6 mouse assessed as increase in survival rate at 4.5 mg/kg administered intratracheally for 4 days from the day of infection measured after 14 days relative to untreated control; format: functional, organism-based; parameters: dose 4.5 mg/kg
Mus musculus [16] = assay: Toxicity in immunosuppressed C57BL/6 mouse assessed as mild multifocal interstitial plasmacytic infiltration at 4.5 mg/kg administered intratracheally on days 1, 4, 7 and 11 one day post infection; format: organism-based; parameters: dose 4.5 mg/kg, route endotracheal; conditions: in vivo, inhaled_or_intranasal
Aspergillus fumigatus [17] = assay: Antifungal activity against Aspergillus fumigatus CBS 144.89 infected in immunosuppressed wild-type C57BL/6 mouse assessed as increase in survival rate at 4.5 mg/kg administered intratracheally on days 1, 4, 7 and 11 one day post infection measured after 21 days relative to untreated control; format: functional, organism-based; parameters: dose 4.5 mg/kg
Mus musculus [18] = assay: Toxicity in immunosuppressed C57BL/6 mouse assessed as mild multifocal interstitial plasmacytic infiltration at 1 mg/kg administered intratracheally on days 1, 4, 7 and 11 one day post infection; format: organism-based; parameters: dose 1 mg/kg, route endotracheal; conditions: in vivo, inhaled_or_intranasal
Aspergillus fumigatus [19] = assay: (§1) Antifungal activity against DsRed-labeled Aspergillus fumigatus CBS 144.89 infected in immunocompromized mouse assessed as decrease in residual fungal spore colocalized with macrophage and dendritic cell at 4.5 mg/kg qd administered intratracheally for 4 days relative to untreated control; format: functional, organism-based; parameters: dose 4.5 mg/kg
Aspergillus fumigatus [20] = assay: as §1, with “transgenic C57BL/6 Cx3cr1 gfp/+mouse” for “immunocompromized mouse”; format: functional, organism-based; parameters: dose 4.5 mg/kg
Aspergillus fumigatus [21] = assay: Antifungal activity against Aspergillus fumigatus CBS 144.89 infected in immunosuppressed wild-type C57BL/6 mouse assessed as increase in survival rate at 4.5 mg/kg administered intratracheally as single dose one day postinfection measured after 14 days relative to untreated control; format: functional, organism-based; parameters: dose 4.5 mg/kg
Aspergillus fumigatus [22] = assay: Antifungal activity against DsRed-labeled Aspergillus fumigatus CBS 144.89 infected in immunocompromized C57BL/6 mouse assessed fungal hyphae degradation in lung at 4.5 mg/kg qd administered intratracheally for 4 days relative to untreated control; format: functional, organism-based; parameters: dose 4.5 mg/kg
Aspergillus fumigatus [23] = assay: Antifungal activity against DsRed-labeled Aspergillus fumigatus CBS 144.89 infected in immunocompromized mouse assessed as macrophages phygocytosed-fungal conidia at 4.5 mg/kg qd administered intratracheally for 4 days relative to untreated control; format: functional, organism-based; parameters: dose 4.5 mg/kg
Aspergillus fumigatus [24] = assay: Antifungal activity against DsRed-labeled Aspergillus fumigatus CBS 144.89 infected in transgenic C57BL/6 Cx3cr1 gfp/+ mouse assessed as macrophages phygocytosed-fungal conidia at 4.5 mg/kg qd administered intratracheally for 4 days relative to untreated control; format: functional, organism-based; parameters: dose 4.5 mg/kg

With C[C@@H]1[C@H](O)[C@@H](C)/C=C/C=C/C=C/C=C/C=C/C=C/C=C/[C@H](O[C@@H]2O[C@H](C)[C@@H](O)[C@H](N)[C@@H]2O)C[C@@H]2O[C@](O)(C[C@@H](O)C[C@@H](O)[C@H](O)CC[C@@H](O)C[C@@H](O)CC(=O)O[C@H]1C)C[C@H](O)[C@H]2C(=O)O [AMPHOTERICIN B] the Activity (Mus musculus [1]) was “Toxic”, the Activity (Aspergillus fumigatus [2]) was “inactive” and the MIC (Aspergillus fumigatus [3]) was 11.5 µg/mL (≈ 12.4 µM). For the same compound, the Activity (Aspergillus fumigatus [4]) was “inactive”, the Activity (Mus musculus [5]) was “Toxic” and the Activity (Mus musculus [6]) was “Toxic”. The Activity (Mus musculus [7]) was “Toxic”, the Activity (Mus musculus [8]) was “Toxic” and the Activity (Aspergillus fumigatus [9]) was “inactive”. The Activity (Mus musculus [10]) was “Toxic”.
With CCCCCCCCCCCCCC(=O)N[C@@H](CCCCN)C(=O)N[C@@H](CC(C)C)C(=O)N[C@H](CC(C)C)C(=O)N[C@@H](CCCCN)C(=O)O the hemolysis at 20 µM [11] was 13%, the hemolysis at 50 µM [12] was 50% and the MIC (Aspergillus fumigatus [3]) was 9 µg/mL (≈ 12.7 µM).
In the case of CCCCCCCCCCCC(=O)N[C@@H](CCCCN)C(=O)N[C@@H](CC(C)C)C(=O)N[C@H](CC(C)C)C(=O)N[C@@H](CCCCN)C(=O)O (Lauroyl-KL[dL]K-OH), the hemolysis at 20 µM [11] is reported as 0%, the hemolysis at 50 µM [12] is reported as 0% and the MIC (Aspergillus fumigatus [3]) is reported as 34 µg/mL (≈ 49.8 µM).
For CCCCCCCCCCCCCCCC(=O)N[C@@H](CCCCN)C(=O)N[C@@H](C)C(=O)N[C@H](C)C(=O)N[C@@H](CCCCN)C(=O)O (Palmitoyl-KA[dA]K-OH), the hemolysis at 20 µM [11] was 0%, the hemolysis at 50 µM [12] was 3% and the Activity (Aspergillus fumigatus [13]) was “Active”. The Activity (Aspergillus fumigatus [14]) was 25%, the Activity (Aspergillus fumigatus [15]) was “Active” and the MIC (Aspergillus fumigatus [3]) was 8 µg/mL (≈ 12.2 µM). The Activity (Mus musculus [16]) was “Toxic”, the Activity (Aspergillus fumigatus [17]) was “Active” and the Activity (Mus musculus [18]) was “Toxic”. The Activity (Aspergillus fumigatus [19]) was “Active”, the Activity (Aspergillus fumigatus [20]) was “Active” and the Activity (Aspergillus fumigatus [21]) was “Active”. The Activity (Aspergillus fumigatus [22]) was “Active”, the Activity (Aspergillus fumigatus [23]) was “Active” and the Activity (Aspergillus fumigatus [24]) was “Active”.
Compound CCCCCCCCCCCC(=O)N[C@@H](CC(=O)O)C(=O)N[C@@H](CC(C)C)C(=O)N[C@@H](CCCCN)C(=O)N[C@@H](CCCCN)C(=O)N[C@@H](CC(C)C)C(=O)N[C@@H](CC(C)C)C(=O)N[C@@H](CCCCN)C(=O)N[C@@H](CCCCN)C(=O)N[C@@H](CC(C)C)C(=O)N[C@@H](CC(C)C)C(=O)N[C@@H](CCCCN)C(=O)N[C@@H](CCCCN)C(=O)N[C@@H](CC(C)C)C(=O)O (Lauroyl-DLKKLLKKLLKKL-OH) has a hemolysis at 20 µM [11] of 0%, a hemolysis at 50 µM [12] of 0% and an MIC (Aspergillus fumigatus [3]) of 20.8 µg/mL (≈ 11.8 µM). The Activity (Aspergillus fumigatus [22]) was “Active”.
For CCCCCCCCCCCCCCCC(=O)N[C@@H](CCCCN)C(=O)N[C@@H](CC(C)C)C(=O)N[C@H](CC(C)C)C(=O)N[C@@H](CCCCN)C(=O)O, the hemolysis at 20 µM [11] was 9%, the hemolysis at 50 µM [12] was 45% and the MIC (Aspergillus fumigatus [3]) was 2 µg/mL (≈ 2.71 µM).
With CCCCCCCCCCCCCCCC(=O)N[C@@H](CCCCN)C(=O)N[C@@H](CCCCN)C(=O)N[C@H](CCCCN)C(=O)N[C@@H](CCCCN)C(=O)O (Palmitoyl-KK[dK]K-OH) the hemolysis at 20 µM [11] was 0%, the hemolysis at 50 µM [12] was 6% and the MIC (Aspergillus fumigatus [3]) was 38.4 µg/mL (≈ 49.9 µM).
